Tested on: mouse heart
Assay: ISO injury in CM-recombined MerCreMer-ZEG and MerCreMer:RYP mice (lineage tracing of new CMs)
Assay type: in vivo
Conditions: 28 days after ISO
From the text: BrdU labeling and Ki67 expression by itself cannot establish whether the new CMs are generated by the reported division of pre-existing adult CMs or by the activation and ensuing differentiation of a stem-progenitor cell compartment. To specifically address this issue, we traced the cell lineage of the new CMs. We generated double-transgenic mice (MerCreMer-ZEG) (Hsieh et al., 2007; Loffredo et al., 2011) in which, upon tamoxifen administration, β-galactosidase (β-Gal) is replaced by enhanced green fluorescent protein (GFP) exclusively in cardiac cells which have already activated the Myh6 gene (and, therefore, the transgene carrying the cre recombinase gene) which are either post-mitotic CMs or amplifying cells already committed to the CM lineage (i.e., immature myocytes/myocyte precursors).
In tamoxifen-naïve MerCreMer-ZEG mice, 99±0.2% of the CMs express β-Gal and are negative for GFP (the leakage of the Myh6-Cre construct in these animals is ˜0.2%). Tamoxifen correctly switched β-Gal to GFP in CMs (FIG. 15A-C). […] In this setting, if new CMs (BrdU^pos) originated from division of pre-existing CMs they should be more GFP^pos and the ratio between GFP^pos and β-Gal^pos CMs should remain unchanged at ˜80/20. If instead, the new CMs originate from non-CM cells, they should be β-Gal^pos and produce a “dilution” of GFP^pos CMs with a decrease of the GFP^pos/β-Gal^pos CM ratio (FIG. 15A).
In mice, ISO injection caused the same type of myocardial damage and LV dysfunction shown in rats, resulting in c-kit^poseCSC activation, CM regeneration and recovery of cardiac function (FIG. 22). […] These numbers match the CM loss produced by ISO administration (FIG. 22). In contrast, we detected very few newly generated, BrdU^posβ-Gal^pos, CMs (0.15±0.05%) in saline-treated CTRL mice (FIG. 15E). […] This discrepancy might be due to the different injury models used. In contrast to coronary ligation, although ISO kills a large number of CMs, because it leaves a patent coronary circulation the eCSCs are spared and provides a more physiologic test for the endogenous reparative potential of the adult heart (Ellison et al., 2007b). Furthermore, during the two-week administration of tamoxifen for Cre induction it would be expected that some eCSCs have committed to the myogenic lineage and activated the Myh6 gene with recombination of the transgene and generation of […], as reported by Dong et al. (2012).
Finally, we dissociated to single cells CMs from the hearts of double transgenic MerCreMer:RYP mice obtained by crossing MerCreMer with R26R-EYFP (RYP) mice (Qian et al., 2012), in which the CMs were labeled with the enhanced yellow fluorescent protein (EYFP) upon tamoxifen injection. […]

With `CC(C)NCC(O)c1ccc(O)c(O)c1` (stereo not shown) [ISO, isoproterenol] the “BrdU^pos CMs” value (MerCreMer/ZEG mice) was 9±2%, the “GFP^pos CMs” value (MerCreMer/ZEG mice) was 73.5±3.5% and the “β-Gal^pos CMs” value (MerCreMer/ZEG mice) was 26.5±2%. The “YFP-marked endogenous CMs” value (MerCreMer:RYP mice, apex (and sub-endocardium)) was about 72%.

— patent publication US10526581B2, “Modulation of cardiac stem-progenitor cell differentiation, assays and uses thereof” (priority 2013, dated 2020)
